3 compounds from ChEMBL document CHEMBL3632614, “Small molecules that promote regenerative repair for pancreatic and cardiovascular health” (2015) can be followed below.

Assay [1] can be described thus: Induction of rat beta cell proliferation after 3 days relative to control. In kind it is functional, Pancreatic beta cell.
A further assay is filed under the species Rattus norvegicus. Nature of the assay: Increase in rat beta cell mass in rat T1DM model after 45 days. The class given is functional.
A short description of assay [2]: Induction of rat beta cell proliferation assessed as increase in PDX1 expressing cells relative to control. The class given is functional, Pancreatic beta cell.

On to `COC(=O)C1=C(C)NC(C)=C([N+](=O)[O-])C1c1ccccc1C(F)(F)F` (centres undefined), for which the “fold change (FC)” value in assay [1] is 2.5. Take `CN1CCN(Cc2ccc(NC(=O)Cc3ccc(Oc4cc(NC(=O)C5CC5)ncn4)cc3)cc2C(F)(F)F)CC1`: the Activity entry is “<=4%” in assay [1] and 50% in the assay listed under Rattus norvegicus. With `Nc1ncnc2nc(-c3ccc(N4CCOCC4)nc3)cc(-c3cccc(Br)c3)c12`, in assay [2], the “fold change (FC)” value is 2.
